The nature of data set [1]: In vitro metabolism in mouse jejunum loop fluid. Type of data set: in vitro ADME. The note with it: for metabolism in mouse jejunum fluid (words) / remaining at 2 h, 100 μg/mL: 37° C.; for metabolism in mouse jejunum fluid (words): up to 120 minutes; for remaining at 2 h, 100 μg/mL: mouse jejunum loop fluid, pH 8, mouse jejunal loop fluid, after 120 minutes, read-out: percent remaining. As for the experimental part: The purpose of this study was to determine the stability of phosphorylated peptides in mouse jejunal loop fluid. […] The isotopically labeled peptide 2 was synthesized with ^13C, ^15N-labeled alanine and leucine (i.e., with a sequence CCpS[^13C6, ^15N]LCCNP[^13C6, ^15N]ACTGC).
Each peptide was synthesized by American Peptide Company, Inc., and was stored desiccated at −20° C. A 1 mg/mL solution for each of the non-labeled peptides was prepared in 1 M tris (hydroxymethyl) aminomethane hydrochloride (Tris-HCl), pH 8 just prior to conducting the mouse intestinal loop fluid assay. A 500 ng/mL solution of ^13C, ^15N-labeled peptide 2 was prepared in 0.1% formic acid in water and was utilized to dilute the jejunum samples for post-assay LC-MS/MS analysis.
To collect the fluid, mice were fasted overnight with full access to water. They were then anesthetized with isofluorane for surgery and subjected to laparotomy in which the small intestine was exteriorized. Jejunum loops of 3 to 4 cm in length were made with sutures starting at 7 cm from the pyloric sphincter of the stomach. Once the loops were formed, they were injected with 200 μL of phosphate buffered saline (PBS) buffer (10 mM, pH 7.4). The abdominal wall and skin of the animals were then sutured, and the animals were allowed to recover for 30 minutes. Following recovery, the animals were sacrificed, the loops were then excised and the fluid inside was recovered and stored at −80° C. until use.
For each peptide, 25 μL of the 1 mg/mL peptide stock solution was added to 25 μL of 1 M Tris-HCl and 25 μL of 10× calf intestinal phosphatase (CIP) buffer containing 500 mM Tris-HCl, 1 M sodium chloride (NaCl), 0.1 mM magnesium chloride (MgCl2), pH 8. The reactions were initiated by adding 175 μL of the mouse jejunum loop fluid or 175 μL of the 1 M Tris-HCl pH8 buffer for the control reactions. The final concentration of each peptide was 100 μg/mL. The reactions were continuously mixed and maintained at 37° C. on a plate shaker. At 0, 2, 5, 10, 20, 30, 60, 90 and 120 minutes after adding the mouse intestinal loop fluid, a 25 μL aliquot was taken and added to 25 μL of 4° C. 12% trichloroacetic acid to stop the reaction. An additional 200 μL of 0.1% formic acid in water was added to these reactions for dilution purposes. These samples were then further diluted by taking 20 μL of each sample and adding it to 480 μL of 0.1% formic acid in water containing 500 ng/mL of the internal standard 13C, 15N -labeled peptide 2.
All samples were analyzed using an Applied Biosystems/MDS SCIEX API 4000 triple quadrupole mass spectrometer equipped with a high-performance liquid chromatography (HPLC) system. The mass spectrometer was operated in multiple reaction monitoring (MRM) mode, with resolution set to 1.2 Da.
The LC-MS/MS data were processed using Analyst version 1.4.2 software (Applied Biosystems/MDS SCIEX). The peak area ratio (ratio of analyte peak area to internal standard peak area) was used to calculate the percent remaining of each peptide.

Data set [2] has as its target T1, human prostate acid phosphatase (HuPrAP) (Homo sapiens, UniProt P15309).
T1 construct: purchased MP Biochemicals, Solon, Ohio 153872
T1 sequence (P15309 33-386): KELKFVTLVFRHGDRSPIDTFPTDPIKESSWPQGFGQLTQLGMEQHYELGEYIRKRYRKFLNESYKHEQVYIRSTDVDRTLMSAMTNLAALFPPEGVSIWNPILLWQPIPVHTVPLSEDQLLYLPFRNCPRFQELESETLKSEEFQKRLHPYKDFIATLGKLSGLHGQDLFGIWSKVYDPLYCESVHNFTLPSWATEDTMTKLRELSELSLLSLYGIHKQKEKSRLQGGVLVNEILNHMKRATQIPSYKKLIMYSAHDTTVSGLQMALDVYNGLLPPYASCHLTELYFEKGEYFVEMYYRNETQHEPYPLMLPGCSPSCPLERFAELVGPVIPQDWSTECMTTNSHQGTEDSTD
Nature of the data set: Acid phosphatase reaction, human prostate acid phosphatase. The format is in vitro ADME. Particulars: Human prostatic acid phosphatase pH 5, 90 minutes at 37° C. The procedure:
(§1) For the alkaline phosphatase reactions, peptide stocks were prepared at 1 mg/mL in 0.1 M Tris-HCl pH 8, which were stored at −20° C. until assays were conducted. For the acid phosphatase reactions, peptide stocks were prepared at 1 mg/mL in 50 mM sodium phosphate pH 6, which was stored at −20° C. until assays were conducted.
(§2) Potato acid phosphatase (PoAP) was obtained from Sigma, St. Louis, Miss. Cat #P1146 and human prostate acid phosphatase (HuPrAP) was obtained from MP Biochemicals, Solon, Ohio. Cat # 153872. The acid phosphatases were dissolved to provide a solution containing 0.5 units AP/μL using 50 mM sodium acetate pH 5, 0.2 mM MgCl2. The acid phosphatase reactions were assembled in 20 μL quantities containing: • 2 μL 10× acid phosphatase buffer (500 mM sodium acetate pH 5, 2 mM MgCl2) • 2 μL peptide stock (1 mg/mL) • 12 μL H2O • 4 μL acid phosphatase (0.5 or 2 units)
(§3) The reaction solutions were mixed gently and incubated for 90 minutes at 37° C. The reaction solutions were stored at −20° C. for later analysis. For analysis, 7.5 μL acid phosphatase reactions were diluted to 50 μL with 0.1% formic acid in water to a final concentration of 10 μM. The control reactions for enzyme activity were assembled and diluted to 10 mM p-nitrophenylphosphate in place of peptide. After incubation, the reactions were diluted with 0.1 mL of 100 mM borate buffer pH 9 and read at the absorbance of 405 nm to monitor p-nitrophenol appearance.

In data set [3] the target is T2, Calf intestinal alkaline phosphatase (CIP) (Bos taurus, UniProt P19111).
T2 construct: purchased New England BioLabs, Ipswich, Mass; M0290S
T2 sequence (P19111 20-506): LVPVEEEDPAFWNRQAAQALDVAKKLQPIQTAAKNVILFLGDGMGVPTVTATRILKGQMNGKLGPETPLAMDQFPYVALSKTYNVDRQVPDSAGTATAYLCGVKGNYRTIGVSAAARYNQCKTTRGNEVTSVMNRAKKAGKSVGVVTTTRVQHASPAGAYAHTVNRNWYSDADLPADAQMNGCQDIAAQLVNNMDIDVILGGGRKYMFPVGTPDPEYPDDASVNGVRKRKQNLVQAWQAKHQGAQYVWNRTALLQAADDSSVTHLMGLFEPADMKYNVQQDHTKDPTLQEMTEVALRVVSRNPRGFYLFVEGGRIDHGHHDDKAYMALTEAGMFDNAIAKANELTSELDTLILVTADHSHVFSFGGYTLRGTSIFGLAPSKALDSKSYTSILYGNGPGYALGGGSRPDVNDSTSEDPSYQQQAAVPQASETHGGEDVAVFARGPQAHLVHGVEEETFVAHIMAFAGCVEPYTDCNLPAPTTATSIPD
Nature of the data set: Alkaline phosphatase reaction (dephosphorylation of peptide substrates, LCMS). The format is in vitro ADME. As for the experimental part: as §1
Calf intestinal alkaline phosphatase (CIP) was obtained from New England BioLabs, Ipswich, Mass. Cat # M0290S. The CIP reaction solution was prepared by dilution with buffer (50 mM KCl, 10 mM Tris-HCl pH 8, 1 mM MgCl2, 50% glycerol) to 0.5 units/μL. The alkaline phosphatase reaction solutions were assembled in 20 μL quantities containing: • 2 μL 10× CIP buffer (1M NaCl, 500 mM Tris-HCl pH 8, 100 mM MgCl2) • 2 μL peptide stock (1 mg/mL) • 12 μL H2O • 4 μL alkaline phosphatase (0, 0.5 or 2 units)
The reaction solutions were mixed gently and incubated for 90 minutes at 37° C. These reaction solutions were stored at −20° C. until analysis. For analysis, the reaction solutions were diluted from 7.5 μL of CIP treated peptide to 50 μL with 0.1% formic acid in water to a final concentration of 10 μM.
Control reactions were assembled for enzyme activity containing 10 mM p-nitrophenylphosphate in place of peptide. After incubation, the reactions were diluted with 0.1 mL of 100 mM borate buffer pH 9 and read at the absorbance of 405 nm to monitor p-nitrophenol appearance.

The conditions of data set [4]: oral administration at therapeutic dose levels; cited from earlier work.
In data set [5] the test system is Potato acid phosphatase (PoAP). Nature of the data set: Acid phosphatase reaction, potato acid phosphatase. Type of data set: in vitro ADME. Particulars: Potato acid phosphatase pH 5, 90 minutes at 37° C. As for the experimental part:
as §1, §2, §3

Data set [6] relates to Calf intestinal alkaline phosphatase (CIP). Description: Calf intestinal alkaline phosphatase (CIP) in CIP buffer (NaCl, Tris-HCl pH 8, MgCl2). The note with it: 37° C., up to 90 minutes.
Data set [7] concerns human prostate acid phosphatase (HuPrAP). Description: human prostate acid phosphatase (HuPrAP) in sodium acetate pH 5, MgCl2. Particulars: 37° C., up to 90 minutes.
Data set [8] in a line: mouse jejunum loop fluid (loops injected with 200 μL PBS, fluid recovered after 30 minutes). Particulars: 37° C., up to 120 minutes.
The test system of data set [9] is Potato acid phosphatase (PoAP). Nature of the data set: Potato acid phosphatase (PoAP) in sodium acetate pH 5, MgCl2. Particulars: 37° C., up to 90 minutes.
Setting [10] is: Alkaline phosphatase pH 8, 90 minutes at 37° C.

Positions of bridges follow the written chain, without caps; N, C: chain ends. Non-standard residues stand in square brackets, D forms with d. Residues, ends and D or L forms follow the SMILES beside them. pS = N[C@@H](COP(=O)(O)O)C(=O)O

Usually fraction remaining stands for the share of the starting amount still present when the sample was taken. Regarding `CC(C)C[C@@H]1NC(=O)[C@H](CO)NC(=O)[C@@H]2CSSC[C@@H]3NC(=O)[C@H](C)NC(=O)[C@@H]4CCCN4C(=O)[C@H](CC(N)=O)NC(=O)[C@H](CSSC[C@H](N)C(=O)N2)NC(=O)[C@H](CSSC[C@@H](C(=O)O)NC(=O)CNC(=O)[C@H]([C@@H](C)O)NC3=O)NC1=O` [Dephospho-Peptide 2, CCSLCCNPACTGC] (H-CCSLCCNPACTGC-OH; disulfide 1-6, 2-10, 5-13 (inferred); N-terminus and C-terminus assumed), in data set [1], the “metabolism in mouse jejunum fluid (words)” value is reported as “degraded faster in mouse intestinal fluid than peptide 2” and the amount remaining at 2 h, 100 μg/mL was found to be 5.6%.
With `CC(C)C[C@@H]1NC(=O)[C@H](COP(=O)(O)O)NC(=O)[C@@H]2CSSC[C@@H]3NC(=O)[C@H](C)NC(=O)[C@@H]4CCCN4C(=O)[C@H](CC(N)=O)NC(=O)[C@H](CSSC[C@H](N)C(=O)N2)NC(=O)[C@H](CSSC[C@@H](C(=O)O)NC(=O)CNC(=O)[C@H]([C@@H](C)O)NC3=O)NC1=O` [Peptide 2, CCpSLCCNPACTGC] (H-CC[pS]LCCNPACTGC-OH; disulfide 1-6, 2-10, 5-13 (inferred); N-terminus and C-terminus assumed), the “Dephospho (%)” value is listed as 4.1% in [2] and 100% in data set [3] (setting [10]). The fraction remaining at 1.5 h, 0.1 mg/mL in data set [2] (human prostate acid phosphatase (HuPrAP)) is 95.9%; in data set [3] (calf, calf intestinal alkaline phosphatase (CIP), Alkaline phosphatase pH 8, 90 minutes at 37° C.), 0%. For the same compound, in data set [1] (mouse jejunum loop fluid at 37° C.), the “formation of metabolite dephospho-peptide 2” value was “Formation of dephospho-peptide 2 was observed”. Besides, the amount remaining at 2 h, 100 μg/mL in data set [1] was 5.3%.
`CC(C)C[C@@H]1NC(=O)[C@H](CCC(=O)O)NC(=O)[C@@H]2CSSC[C@@H]3NC(=O)[C@H](C)NC(=O)[C@@H]4CCCN4C(=O)[C@H](CC(N)=O)NC(=O)[C@H](CSSC[C@H](N)C(=O)N2)NC(=O)[C@H](CSSC[C@@H](C(=O)N[C@@H](Cc2ccc(O)cc2)C(=O)O)NC(=O)CNC(=O)[C@H]([C@@H](C)O)NC3=O)NC1=O` [Peptide 3, CCELCCNPACTGCY] (H-CCELCCNPACTGCY-OH; disulfide 1-6, 2-10, 5-13 (inferred); N-terminus and C-terminus assumed): the “metabolism in mouse jejunum fluid (words)” value in data set [1] is listed as “not detected after 90 minutes”; in [1] (listed as peptide 3), “degraded faster in mouse intestinal fluid than peptide 2”. Besides, the “Effect of CIP treatment on peptide (LC-MS)” value in data set [3] (with and without calf intestinal alkaline phosphatase, data not shown) is given as “not affected by CIP treatment”.
In the case of `C[C@@H]1NC(=O)[C@@H]2CCCN2C(=O)[C@H](CC(N)=O)NC(=O)[C@@H]2CSSC[C@H](N)C(=O)N[C@H]3CSSC[C@H](NC1=O)C(=O)N[C@@H]([C@@H](C)O)C(=O)NCC(=O)N[C@H](C(=O)N[C@@H](Cc1ccc(O)cc1)C(=O)O)CSSC[C@H](NC(=O)[C@H](Cc1ccc(O)cc1)NC(=O)[C@H](CCC(=O)O)NC3=O)C(=O)N2` [linaclotide] (H-CCEYCCNPACTGCY-OH; disulfide 1-6, 2-10, 5-13), the “levels seen systemically after oral administration” value in [4] is listed as “no detectable levels”.
For `O=[N+]([O-])c1ccc(OP(=O)(O)O)cc1` [p-nitrophenylphosphate, reference compound], the “Dephospho (%)” value in data set [2], in data set [5] and in data set [3] (setting [10]) was 100% each time. Further, the “Remaining (%)” value in [2], in data set [5] and in [3] (setting [10]) was 0% each time.
As to CCELCCNPACTGCY, in data set [6], the not cleaved entry is reported as “not affected by CIP treatment”.
With CCpSLCCNPACTGC, the values for the fragment found entry in [7], in [6] and in data set [8] were “Dephospho-Peptide 2”, “Dephospho-Peptide 2” and “dephospho-peptide 2”, respectively.
Turning to CCpSLCCNPACTGCY, the fragment found entry in data set [7], in data set [6] and in [9] was “Dephospho-Peptide 1” in each case.

The values are drawn from patent publication US20140179607A9 (IRONWOOD PHARMACEUTICALS, INC, priority 2009, published 2014).
